From paper PMC5218480 (PLoS ONE, 2017)

Test system: MV-4-11 cells
Assay: Gene expression microarray analysis (Affymetrix PrimeView) and GSEA
Assay type: cell-based, human
Set-up: RFU PODN (11730768_x_at) / Fold change /veh PODN (11730768_x_at) / RFU LINC00158 (11744669_a_at) / Fold change /veh LINC00158 (11744669_a_at) / RFU DUSP10 (11751237_a_at) / Fold change /veh DUSP10 (11751237_a_at) / RFU ID3 (11757404_x_at) / Fold change /veh ID3 (11757404_x_at) / RFU PLEKHG5 (11737974_s_at) / Fold change /veh PLEKHG5 (11737974_s_at) / RFU LRRC4B (11730491_at) / Fold change /veh LRRC4B (11730491_at) / RFU GIMAP4 (11747438_a_at) / Fold change /veh GIMAP4 (11747438_a_at) / RFU KRT8 (11758183_x_at) / Fold change /veh KRT8 (11758183_x_at) / RFU CNN1 (11734310_a_at) / Fold change /veh CNN1 (11734310_a_at) / RFU VPS37D (11726825_at) / Fold change /veh VPS37D (11726825_at) / RFU C10orf10 (11716522_x_at) / Fold change /veh C10orf10 (11716522_x_at) / RFU KIR2DL2 /// KIR2DL4 /// KIR2DL5A /// KIR2DL5B /// KIR2DS1 /// KIR2DS2 /// KIR2DS3 /// KIR2DS4 /// KIR3DL3 /// KIR3DL3 /// KIR3DS1 (11738374_at) / Fold change /veh KIR2DL2 /// KIR2DL4 /// KIR2DL5A /// KIR2DL5B /// KIR2DS1 /// KIR2DS2 /// KIR2DS3 /// KIR2DS4 /// KIR3DL3 /// KIR3DL3 /// KIR3DS1 (11738374_at) / RFU C1QL1 (11718748_at) / Fold change /veh C1QL1 (11718748_at) / RFU TMPRSS4 (11747572_a_at) / Fold change /veh TMPRSS4 (11747572_a_at) / RFU HAMP (11756126_x_at) / Fold change /veh HAMP (11756126_x_at) / RFU RNFT2 (11725882_a_at) / Fold change /veh RNFT2 (11725882_a_at) / RFU NR4A2 (11747474_a_at) / Fold change /veh NR4A2 (11747474_a_at) / RFU ABCC12 (11746883_a_at) / Fold change /veh ABCC12 (11746883_a_at) / RFU TMEM136 (11760407_x_at) / Fold change /veh TMEM136 (11760407_x_at) / RFU CLDN22 /// WWC2 (11732394_at) / Fold change /veh CLDN22 /// WWC2 (11732394_at) / RFU HLA-DPB1 (11760878_x_at) / Fold change /veh HLA-DPB1 (11760878_x_at) / RFU SPINT1 (11716480_a_at) / Fold change /veh SPINT1 (11716480_a_at) / RFU GAP43 (11754022_s_at) / Fold change /veh GAP43 (11754022_s_at) / RFU A4GNT (11735810_at) / Fold change /veh A4GNT (11735810_at) / RFU PRB3 (11715151_x_at) / Fold change /veh PRB3 (11715151_x_at) / RFU TUBB4B (11761932_at) / Fold change /veh TUBB4B (11761932_at) / RFU CAPN14 (11732068_a_at) / Fold change /veh CAPN14 (11732068_a_at) / RFU TMCC2 (11721928_a_at) / Fold change /veh TMCC2 (11721928_a_at) / RFU IRGQ (11745062_a_at) / Fold change /veh IRGQ (11745062_a_at) / RFU FAM174B (11720279_a_at) / Fold change /veh FAM174B (11720279_a_at) / RFU TMPRSS4 (11748680_a_at) / Fold change /veh TMPRSS4 (11748680_a_at) / RFU FAM212B (11763350_a_at) / Fold change /veh FAM212B (11763350_a_at) / RFU PLEKHG5 (11743358_a_at) / Fold change /veh PLEKHG5 (11743358_a_at) / RFU ZSCAN30 (11745921_a_at) / Fold change /veh ZSCAN30 (11745921_a_at) / RFU CMKLR1 (11741424_a_at) / Fold change /veh CMKLR1 (11741424_a_at) / RFU LOC101060620 /// MAPK8IP1 (11723275_at) / Fold change /veh LOC101060620 /// MAPK8IP1 (11723275_at) / RFU SPTSSB (11747773_x_at) / Fold change /veh SPTSSB (11747773_x_at) / RFU PRSS12 (11739890_at) / Fold change /veh PRSS12 (11739890_at) / RFU BIN1 (11741810_x_at) / Fold change /veh BIN1 (11741810_x_at) / RFU WNT11 (11732464_a_at) / Fold change /veh WNT11 (11732464_a_at) / RFU C10orf10 (11716521_a_at) / Fold change /veh C10orf10 (11716521_a_at) / RFU C5orf56 (11738089_at) / Fold change /veh C5orf56 (11738089_at) / RFU CYB561 (11721691_x_at) / Fold change /veh CYB561 (11721691_x_at) / RFU ANKRD19P (11752326_a_at) / Fold change /veh ANKRD19P (11752326_a_at) / RFU OR2T12 /// OR2T33 /// OR2T8 (11738714_s_at) / Fold change /veh OR2T12 /// OR2T33 /// OR2T8 (11738714_s_at) / RFU VCAN (11748164_a_at) / Fold change /veh VCAN (11748164_a_at) / RFU JSRP1 (11732532_at) / Fold change /veh JSRP1 (11732532_at) / RFU KRTAP10-11 (11738290_x_at) / Fold change /veh KRTAP10-11 (11738290_x_at) / RFU MYO3A (11730013_a_at) / Fold change /veh MYO3A (11730013_a_at) / RFU EBF3 (11725865_a_at) / Fold change /veh EBF3 (11725865_a_at) / RFU CAMK2N1 (11719241_x_at) / Fold change /veh CAMK2N1 (11719241_x_at) / RFU C5orf56 (11738088_a_at) / Fold change /veh C5orf56 (11738088_a_at) / RFU OLFML3 (11715873_a_at) / Fold change /veh OLFML3 (11715873_a_at) / RFU LOC100653217 /// NTM (11731650_a_at) / Fold change /veh LOC100653217 /// NTM (11731650_a_at) / RFU MAPK11 (11762145_a_at) / Fold change /veh MAPK11 (11762145_a_at) / RFU FIZ1 (11724087_x_at) / Fold change /veh FIZ1 (11724087_x_at) / RFU OASL (11726364_x_at) / Fold change /veh OASL (11726364_x_at) / RFU SOX15 (11748057_x_at) / Fold change /veh SOX15 (11748057_x_at) / RFU CD79A (11719716_a_at) / Fold change /veh CD79A (11719716_a_at) / RFU HIST1H1D (11736915_at) / Fold change /veh HIST1H1D (11736915_at) / RFU CASKIN2 (11723855_a_at) / Fold change /veh CASKIN2 (11723855_a_at) / RFU LOC730098 (11760151_x_at) / Fold change /veh LOC730098 (11760151_x_at) / RFU OR4N2 (11742367_at) / Fold change /veh OR4N2 (11742367_at) / RFU PRRT2 (11749266_a_at) / Fold change /veh PRRT2 (11749266_a_at) / RFU SNX32 (11753110_a_at) / Fold change /veh SNX32 (11753110_a_at) / RFU CDHR5 (11726645_a_at) / Fold change /veh CDHR5 (11726645_a_at) / RFU RCAN1 (11760418_a_at) / Fold change /veh RCAN1 (11760418_a_at) / RFU FAM167A (11723789_a_at) / Fold change /veh FAM167A (11723789_a_at) / RFU FAM26E (11764081_at) / Fold change /veh FAM26E (11764081_at) / RFU ISYNA1 (11749810_s_at) / Fold change /veh ISYNA1 (11749810_s_at) / RFU ACY1 (11761880_at) / Fold change /veh ACY1 (11761880_at) / RFU 11764098_at / Fold change /veh 11764098_at / RFU SAMD14 (11745864_x_at) / Fold change /veh SAMD14 (11745864_x_at) / RFU NPB (11741838_a_at) / Fold change /veh NPB (11741838_a_at) / RFU TMPRSS6 (11731388_a_at) / Fold change /veh TMPRSS6 (11731388_a_at) / RFU KRTAP10-2 (11738614_at) / Fold change /veh KRTAP10-2 (11738614_at) / RFU ARHGAP8 /// PRR5-ARHGAP8 (11727945_x_at) / Fold change /veh ARHGAP8 /// PRR5-ARHGAP8 (11727945_x_at) / RFU KRTAP5-7 /// NADSYN1 (11734609_at) / Fold change /veh KRTAP5-7 /// NADSYN1 (11734609_at) / RFU RASL12 (11751679_a_at) / Fold change /veh RASL12 (11751679_a_at) / RFU CDKN2B (11736163_a_at) / Fold change /veh CDKN2B (11736163_a_at) / RFU PRF1 (11729649_at) / Fold change /veh PRF1 (11729649_at) / RFU, ZNF638 /// ZNF638-IT1 / Fold change vs veh, ZNF638 /// ZNF638-IT1 / RFU, PANK3 / Fold change vs veh, PANK3 / RFU, SH3YL1 / Fold change vs veh, SH3YL1 / RFU, ZEB2 / Fold change vs veh, ZEB2 / RFU, NRIP1 / Fold change vs veh, NRIP1 / RFU, PTTG1IP / Fold change vs veh, PTTG1IP / RFU, CAPN2 / Fold change vs veh, CAPN2 / RFU, MED14 / Fold change vs veh, MED14 / RFU, SNORA58 / Fold change vs veh, SNORA58 / RFU, C1orf63 / Fold change vs veh, C1orf63 / RFU, LRRFIP1 / Fold change vs veh, LRRFIP1 / RFU, NDUFAF7 / Fold change vs veh, NDUFAF7 / RFU, SLC12A2 / Fold change vs veh, SLC12A2 / RFU, IBTK / Fold change vs veh, IBTK / RFU, ESF1 / Fold change vs veh, ESF1 / Fold change vs veh, TMEM50B / RFU, TAOK1 / Fold change vs veh, TAOK1 / RFU, ACBD3 / Fold change vs veh, ACBD3 / RFU, TMA16 / Fold change vs veh, TMA16 / RFU, RWDD3 / Fold change vs veh, RWDD3 / RFU, BCAT1 / Fold change vs veh, BCAT1 / RFU, EDEM3 / Fold change vs veh, EDEM3 / RFU, TMEM33 / Fold change vs veh, TMEM33 / RFU, WDR75 / Fold change vs veh, WDR75 / RFU, AHCTF1 / Fold change vs veh, AHCTF1 / RFU, TFRC / Fold change vs veh, TFRC / RFU, ZDHHC17 / Fold change vs veh, ZDHHC17 / RFU, NOM1 / Fold change vs veh, NOM1 / RFU, ARL8B / Fold change vs veh, ARL8B / RFU, ZBTB11 / Fold change vs veh, ZBTB11 / RFU, TAMM41 / Fold change vs veh, TAMM41 / RFU, KIAA1704 /// LOC100996395 / Fold change vs veh, KIAA1704 /// LOC100996395 / RFU, ING1 / Fold change vs veh, ING1 / RFU, TRMT61B / Fold change vs veh, TRMT61B / RFU, FUBP3 / Fold change vs veh, FUBP3 / RFU, TP53 / Fold change vs veh, TP53 / RFU, TNKS2 / Fold change vs veh, TNKS2 / RFU, ZFP14 / Fold change vs veh, ZFP14 / RFU, ACTR2 / Fold change vs veh, ACTR2 / RFU, PPP3R1 / Fold change vs veh, PPP3R1 / RFU, PIK3R1 / Fold change vs veh, PIK3R1 / RFU, HNRNPA1 / Fold change vs veh, HNRNPA1 / RFU, RNF170 / Fold change vs veh, RNF170 / RFU, ZNF28 / Fold change vs veh, ZNF28 / RFU, RNGTT / Fold change vs veh, RNGTT / RFU, OGT / Fold change vs veh, OGT / RFU, BRD1 / Fold change vs veh, BRD1 / RFU, MARS / Fold change vs veh, MARS / RFU, ZNF655 / Fold change vs veh, ZNF655 / RFU, FAHD1 / Fold change vs veh, FAHD1 / RFU, BDP1 / Fold change vs veh, BDP1 / RFU, LRRCC1 / Fold change vs veh, LRRCC1 / RFU, ARID1A / Fold change vs veh, ARID1A / RFU, ZNF146 / Fold change vs veh, ZNF146 / RFU, ZNF330 / Fold change vs veh, ZNF330 / RFU, GPN3 / Fold change vs veh, GPN3 / RFU, C9orf123 / Fold change vs veh, C9orf123 / RFU, N4BP2L2 / Fold change vs veh, N4BP2L2 / RFU, ARFIP1 / Fold change vs veh, ARFIP1 / RFU, FAM179B / Fold change vs veh, FAM179B / RFU, BCL10 / Fold change vs veh, BCL10 / RFU, UHRF1BP1L / Fold change vs veh, UHRF1BP1L / RFU, BET1 / Fold change vs veh, BET1 / RFU, CNOT2 / Fold change vs veh, CNOT2 / RFU, ZNF268 / Fold change vs veh, ZNF268 / Fold change vs veh, ZNF507 / RFU, DGCR2 / Fold change vs veh, DGCR2 / RFU, WDSUB1 / Fold change vs veh, WDSUB1 / Fold change vs veh, HSP90B1 /// MIR3652 / RFU, ADSS / Fold change vs veh, ADSS / RFU, GK / Fold change vs veh, GK / RFU, ZNF148 / Fold change vs veh, ZNF148 / RFU, TAF9 / Fold change vs veh, TAF9 / RFU, SLC1A5 / Fold change vs veh, SLC1A5 / RFU, SLMO2 / Fold change vs veh, SLMO2 / RFU, ABCC4 / Fold change vs veh, ABCC4 / RFU, LOC101060439 /// RAP1B / Fold change vs veh, LOC101060439 /// RAP1B / RFU, RFX7 / Fold change vs veh, RFX7 / RFU, GTPBP10 / Fold change vs veh, GTPBP10 / RFU, CNEP1R1 / Fold change vs veh, CNEP1R1 / RFU, BIVM-ERCC5 /// ERCC5 / Fold change vs veh, BIVM-ERCC5 /// ERCC5 / RFU, ILF3 / Fold change vs veh, ILF3 / RFU 11762660_at / Fold change /veh 11762660_at / RFU VCAN (11757783_s_at) / Fold change /veh VCAN (11757783_s_at) / RFU DDX43 (11728927_at) / Fold change /veh DDX43 (11728927_at) / RFU KRT8 (11758188_x_at) / Fold change /veh KRT8 (11758188_x_at) / RFU NKD1 (11759106_at) / Fold change /veh NKD1 (11759106_at) / RFU SRD5A1 (11742802_a_at) / Fold change /veh SRD5A1 (11742802_a_at) / RFU TPSAB1 /// TPSB2 (11721975_s_at) / Fold change /veh TPSAB1 /// TPSB2 (11721975_s_at) / RFU GSTM3 (11746129_a_at) / Fold change /veh GSTM3 (11746129_a_at) / RFU IL23R (11737362_x_at) / Fold change /veh IL23R (11737362_x_at) / RFU TMEM51 (11727254_a_at) / Fold change /veh TMEM51 (11727254_a_at) / RFU PIWIL2 (11732686_x_at) / Fold change /veh PIWIL2 (11732686_x_at) / RFU ORM1 (11744905_x_at) / Fold change /veh ORM1 (11744905_x_at) / RFU CCDC152 (11743942_at) / Fold change /veh CCDC152 (11743942_at) / RFU ECM1 (11717891_a_at) / Fold change /veh ECM1 (11717891_a_at) / RFU IL23R (11748794_a_at) / Fold change /veh IL23R (11748794_a_at) / RFU TNFAIP8L3 (11732012_x_at) / Fold change /veh TNFAIP8L3 (11732012_x_at) / RFU MBOAT4 (11741988_at) / Fold change /veh MBOAT4 (11741988_at) / RFU 11764193_at / Fold change /veh 11764193_at / RFU TMEM53 (11763286_at) / Fold change /veh TMEM53 (11763286_at) / RFU MAGEB2 (11727129_at) / Fold change /veh MAGEB2 (11727129_at) / RFU TMEM200A (11744735_a_at) / Fold change /veh TMEM200A (11744735_a_at) / RFU CCDC152 (11751479_a_at) / Fold change /veh CCDC152 (11751479_a_at) / RFU FAM211A (11726209_a_at) / Fold change /veh FAM211A (11726209_a_at) / RFU RGS16 (11746705_a_at) / Fold change /veh RGS16 (11746705_a_at) / RFU VCAN (11755009_s_at) / Fold change /veh VCAN (11755009_s_at) / RFU RHOB (11743442_s_at) / Fold change /veh RHOB (11743442_s_at) / RFU RGS16 (11720943_a_at) / Fold change /veh RGS16 (11720943_a_at) / RFU RGS16 (11720944_at) / Fold change /veh RGS16 (11720944_at) / RFU, VPS4B / Fold change vs veh, VPS4B / RFU, CREB1 / Fold change vs veh, CREB1 / RFU, DNAJC13 / Fold change vs veh, DNAJC13 / RFU, GNAQ / Fold change vs veh, GNAQ / RFU, CDK5R1 / Fold change vs veh, CDK5R1 / RFU, ZRANB3 / Fold change vs veh, ZRANB3 / RFU, CUL4A / Fold change vs veh, CUL4A / RFU, CCNY / Fold change vs veh, CCNY / RFU, UFL1 / Fold change vs veh, UFL1 / RFU, COG3 / Fold change vs veh, COG3 / RFU, DIAPH2 / Fold change vs veh, DIAPH2 / RFU, SKA2 / Fold change vs veh, SKA2 / RFU, AFF3 / Fold change vs veh, AFF3 / RFU, LMF1 / Fold change vs veh, LMF1 / RFU, IPO11 / Fold change vs veh, IPO11 / RFU, DFFB / Fold change vs veh, DFFB / RFU, FOXP1 / Fold change vs veh, FOXP1 / RFU, CARD8 / Fold change vs veh, CARD8 / RFU, STRN3 / Fold change vs veh, STRN3 / RFU, ADK / Fold change vs veh, ADK / RFU, RASSF2 / Fold change vs veh, RASSF2 / RFU, WIPF1 / Fold change vs veh, WIPF1 / RFU, LARP1B / Fold change vs veh, LARP1B / RFU, RASA1 / Fold change vs veh, RASA1 / RFU, RB1 / Fold change vs veh, RB1 / RFU, PPFIA1 / Fold change vs veh, PPFIA1 / RFU, MAT2A / Fold change vs veh, MAT2A / RFU, CCT5 / Fold change vs veh, CCT5 / RFU, WDR92 / Fold change vs veh, WDR92 / RFU, CUX1 / Fold change vs veh, CUX1 / RFU, TTC7A / Fold change vs veh, TTC7A / RFU, TMEM135 / Fold change vs veh, TMEM135 / RFU, DEPTOR / Fold change vs veh, DEPTOR / RFU, CPM / Fold change vs veh, CPM / RFU, DNAJB6 / Fold change vs veh, DNAJB6 / RFU, CACNA2D3 / Fold change vs veh, CACNA2D3 / RFU, DTX4 / Fold change vs veh, DTX4 / RFU, TFCP2 / Fold change vs veh, TFCP2 / RFU, GMCL1 /// GMCL1P1 / Fold change vs veh, GMCL1 /// GMCL1P1 / RFU, AEBP2 / Fold change vs veh, AEBP2 / RFU, SNHG1 /// SNORD22 /// SNORD25 /// SNORD26 /// SNORD27 /// SNORD28 /// SNORD29 /// SNORD31 / Fold change vs veh, SNHG1 /// SNORD22 /// SNORD25 /// SNORD26 /// SNORD27 /// SNORD28 /// SNORD29 /// SNORD31 / Fold change (Aza/veh), C12orf56 (ProbeSet 11735607_a_at) / Fold change (ACY-1035/veh), C12orf56 (ProbeSet 11735607_a_at) / Fold change (Aza/veh), FGFR1OP (ProbeSet 11751329_s_at) / Fold change (ACY-1035/veh), FGFR1OP (ProbeSet 11751329_s_at) / Fold change (Aza/veh), VPS36 (ProbeSet 11739960_a_at) / Fold change (ACY-1035/veh), VPS36 (ProbeSet 11739960_a_at) / RFU SYPL1 (11715823_x_at) / Fold change /veh SYPL1 (11715823_x_at) / RFU IGFBP7 (11715501_s_at) / Fold change /veh IGFBP7 (11715501_s_at) / RFU REEP3 (11722064_at) / Fold change /veh REEP3 (11722064_at) / RFU IGLL1 (11728026_x_at) / Fold change /veh IGLL1 (11728026_x_at): dose or concentration left out as unconfirmed
Conditions: ProbeSet 11743929_at; LIST B

SMILES: Nc1ncn([C@@H]2O[C@H](CO)[C@@H](O)[C@H]2O)c(=O)n1 [azacitidine]
- Fold change vs veh, UHRF1BP1L: 0.95
